The source of these data is patent US10934310B2, “Inhibitors of Bruton's tyrosine kinase and method of their use” (JANSSEN PHARMACEUTICA NV, priority 2015, dated 2021).

Molecules are shown by their SMILES.

unphosphorylated-BTK kinase domain (UP-BTK), GST-tagged human BTK (389-659aa), sequence (Q06187 389-659): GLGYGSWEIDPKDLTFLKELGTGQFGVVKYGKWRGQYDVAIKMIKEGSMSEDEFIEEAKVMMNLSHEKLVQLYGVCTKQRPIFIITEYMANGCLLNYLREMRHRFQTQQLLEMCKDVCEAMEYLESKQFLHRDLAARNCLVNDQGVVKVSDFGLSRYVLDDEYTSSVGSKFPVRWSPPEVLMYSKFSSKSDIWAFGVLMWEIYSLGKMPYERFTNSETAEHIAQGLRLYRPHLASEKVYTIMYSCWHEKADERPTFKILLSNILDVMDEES

For one test, the target named is unphosphorylated-BTK kinase domain (UP-BTK), GST-tagged human BTK (389-659aa) (Homo sapiens (Human), UniProt Q06187). Description: BTK Kinase Lanthascreen Binding Assay. The following applies: Lanthascreen binding, 60 minutes incubation; pIC50 = negative log of the IC50 in molar. The procedure:
BTK Kinase Lanthascreen Binding Assay:
A BTK kinase lanthascreen binding assay monitors compound binding to unphosphorylated-BTK kinase domain (UP-BTK), by competing with a fluorescent labeled tracer. […] Data were analyzed using Xlfit™ version 5.3 from ID Business Solutions (Guildford), Microsoft Excel add-in. pIC50 refers to the negative log of the IC50 in molar.
Background: Time-resolved FRET reads energy transfer from a long-lived donor to a nearby acceptor.
In the case of `C=CC(=O)N[C@H]1CCCC[C@H]1NC(=O)c1sc2nccc3c2c1NC(=O)N3c1ccc(Oc2ccccc2)cn1` [Example 291, N-((1R,2S)-2-Acrylamidocyclohexyl)-4-oxo-5-(5-phenoxypyridin-2-yl)-4,5-dihydro-3H-1-thia-3,5,8-triazaacenaphthylene-2-carboxamide], the “BTK_I_binding pIC50” value was 8.60.

`C=CC(=O)N[C@H]1CCCC[C@H]1NC(=O)c1sc2nccc3c2c1NC(=O)N3c1cnc(Oc2ccccc2)cn1` [Example 295, N-((1R,2S)-2-Acrylamidocyclohexyl)-4-oxo-5-(5-phenoxypyrazin-2-yl)-4,5-dihydro-3H-1-thia-3,5,8-triazaacenaphthylene-2-carboxamide]: the “BTK_I_binding pIC50” value is 8.39.

Turning to `C=CC(=O)N[C@H]1CCC[C@H]1NC(=O)c1sc2nccc3c2c1NC(=O)N3c1ncc(Oc2ccccc2)cn1` [Example 296, N-((1R,2S)-2-acrylamidocyclopentyl)-4-oxo-5-(5-phenoxypyrimidin-2-yl)-4,5-dihydro-3H-1-thia-3,5,8-triazaacenaphthylene-2-carboxamide], the “BTK_I_binding pIC50” value is recorded as 8.39.

For `C=CC(=O)N[C@H]1CCCC[C@H]1NC(=O)c1sc2nccc3c2c1NC(=O)N3c1ncc(Oc2ccccc2)cn1` [Example 297, N-((1R,2S)-2-Acrylamidocyclohexyl)-4-oxo-5-(5-phenoxypyrimidin-2-yl)-4,5-dihydro-3H-1-thia-3,5,8-triazaacenaphthylene-2-carboxamide], the “BTK_I_binding pIC50” value is listed as 8.53.

For the compound `C=CC(=O)N[C@H]1CCC[C@H]1NC(=O)c1sc2nccc3c2c1NC(=O)N3c1cnc(CC(C)C)cc1C` [Example 298, N-((1R,2S)-2-Acrylamidocyclopentyl)-5-(S)-(6-isobutyl-4-methylpyridin-3-yl)-4-oxo-4,5-dihydro-3H-1-thia-3,5,8-triazaacenaphthylene-2-carboxamide], the “BTK_I_binding pIC50” value came to 8.09.

For the compound `C=CC(=O)N[C@H]1CCCC[C@H]1NC(=O)c1sc2nccc3c2c1NC(=O)N3c1cnc(Oc2ccccc2)nc1` [Example 302, N-((1R,2S)-2-Acrylamidocyclohexyl)-4-oxo-5-(2-phenoxypyrimidin-5-yl)-4,5-dihydro-3H-1-thia-3,5,8-triazaacenaphthylene-2-carboxamide], the “BTK_I_binding pIC50” value was 8.23.

As to `C=CC(=O)N[C@H]1CCC[C@H]1NC(=O)c1sc2nccc3c2c1NC(=O)N3c1ccc(Oc2cccnn2)cc1C` [Example 305, N-((1R,2S)-2-Acrylamidocyclopentyl)-5-(2-methyl-4-(pyridazin-3-yloxy)phenyl)-4-oxo-4,5-dihydro-3H-1-thia-3,5,8-triazaacenaphthylene-2-carboxamide], the “BTK_I_binding pIC50” value is 7.84.

Turning to `C=CC(=O)N[C@@H]1CCC[C@H]1NC(=O)c1sc2nccc3c2c1NC(=O)N3c1ncc(Oc2ccccc2)cn1` [Example 307, N-((1R,2R)-2-Acrylamidocyclopentyl)-4-oxo-5-(5-phenoxypyrimidin-2-yl)-4,5-dihydro-3H-1-thia-3,5,8-triazaacenaphthylene-2-carboxamide], the “BTK_I_binding pIC50” value is recorded as 7.58.

In the case of `C=CC(=O)N[C@H]1CCC[C@H]1NC(=O)c1sc2nccc3c2c1NC(=O)N3c1cnc(Oc2ccccc2)nc1` [Example 310, N-((1R,2S)-2-Acrylamidocyclopentyl)-4-oxo-5-(2-phenoxypyrimidin-5-yl)-4,5-dihydro-3H-1-thia-3,5,8-triazaacenaphthylene-2-carboxamide], the “BTK_I_binding pIC50” value amounted to 8.04.

Staying with this test, now noted: compound, 50 nM Tracer 236, 2 nM anti-GST antibody, 60 minutes; pIC50 = negative log of the IC50 in molar.
As to `N[C@H]1CCC[C@H]1NC(=O)c1sc2nccc3c2c1NC(=O)N3c1cc(-c2ccccc2)ccn1` [Example 267, N-((1R,2S)-2-Aminocyclopentyl)-4-oxo-5-(4-phenylpyridin-2-yl)-4,5-dihydro-3H-1-thia-3,5,8-triazaacenaphthylene-2-carboxamide], the “BTK_I_binding pIC50” value is on record as 6.21.

On to `N[C@@H]1CCC[C@H]1NC(=O)c1sc2nccc3c2c1NC(=O)N3c1ccc(Oc2ccccc2)nc1` [Example 269, N-((1R,2R)-2-Aminocyclopentyl)-4-oxo-5-(6-phenoxypyridin-3-yl)-4,5-dihydro-3H-1-thia-3,5,8-triazaacenaphthylene-2-carboxamide], for which the “BTK_I_binding pIC50” value was determined as 6.00.

Still in this test, the particulars now being: read-out: BTK_I_binding pIC50 (converted).
On to `O=C(N[C@@H]1CCC[C@H]1O)c1sc2nccc3c2c1NC(=O)N3c1ccnc(-c2ccccc2)c1` [Example 268, N-((1R,2R)-2-Hydroxycyclopentyl)-4-oxo-5-(2-phenylpyridin-4-yl)-4,5-dihydro-3H-1-thia-3,5,8-triazaacenaphthylene-2-carboxamide], for which the IC50 is 0.631 µM.

Regarding `CC(C)c1cc(N2C(=O)Nc3c(C(=O)N[C@@H]4CCC[C@@H]4N)sc4nccc2c34)ccn1` [Example 270, N-((1R,2S)-2-Aminocyclopentyl)-5-(2-isopropylpyridin-4-yl)-4-oxo-4,5-dihydro-3H-1-thia-3,5,8-triazaacenaphthylene-2-carboxamide], the IC50 is over 1 µM.

`CC(C)Oc1ccc(N2C(=O)Nc3c(C(=O)N[C@@H]4CCC[C@@H]4N)sc4nccc2c34)cc1` [Example 271, N-((1R,2S)-2-Aminocyclopentyl)-5-(4-isopropoxyphenyl)-4-oxo-4,5-dihydro-3H-1-thia-3,5,8-triazaacenaphthylene-2-carboxamide]: the IC50 was over 1 µM.

For `N[C@@H]1CCCC[C@H]1NC(=O)c1sc2nccc3c2c1NC(=O)N3c1ccc(Oc2ccccc2)nc1` [Example 277, N-((1R,2R)-2-Aminocyclohexyl)-4-oxo-5-(6-phenoxypyridin-3-yl)-4,5-dihydro-3H-1-thia-3,5,8-triazaacenaphthylene-2-carboxamide], the IC50 was over 1 µM.

Turning to `N[C@H]1CCC[C@H]1NC(=O)c1sc2nccc3c2c1NC(=O)N3c1cnnc(-c2ccccc2)c1` [Example 278, N-((1R,2S)-2-Aminocyclopentyl)-4-oxo-5-(6-phenylpyridazin-4-yl)-4,5-dihydro-3H-1-thia-3,5,8-triazaacenaphthylene-2-carboxamide], the IC50 is over 1 µM.

For the compound `C=CC(=O)N[C@H]1CCC[C@H](NC(=O)c2sc3nccc4c3c2NC(=O)N4c2ccnc(-c3ccccc3)c2)C1` [Example 279, N-((1S,3S)-3-Acrylamidocyclohexyl)-4-oxo-5-(2-phenylpyridin-4-yl)-4,5-dihydro-3H-1-thia-3,5,8-triazaacenaphthylene-2-carboxamide], the IC50 was over 1 µM.

For the compound `CC(=O)N[C@H]1CCC[C@H]1NC(=O)c1sc2nccc3c2c1NC(=O)N3c1ccnc(-c2ccccc2)c1` [Example 280, N-((1R,2S)-2-Acetamidocyclopentyl)-4-oxo-5-(2-phenylpyridin-4-yl)-4,5-dihydro-3H-1-thia-3,5,8-triazaacenaphthylene-2-carboxamide], the IC50 was over 1 µM.

For the compound `N[C@H]1CCC[C@H]1NC(=O)c1sc2nccc3c2c1NC(=O)N3c1cc(-c2ccccc2)ncn1` [Example 281, N-((1R,2S)-2-Aminocyclopentyl)-4-oxo-5-(6-phenylpyrimidin-4-yl)-4,5-dihydro-3H-1-thia-3,5,8-triazaacenaphthylene-2-carboxamide], the IC50 was over 1 µM.

On to `C=CC(=O)N[C@H]1CC[C@H](NC(=O)c2sc3nccc4c3c2NC(=O)N4c2ccnc(-c3ccccc3)c2)C1` [Example 282, N-((1S,3S)-3-Acrylamidocyclopentyl)-4-oxo-5-(2-phenylpyridin-4-yl)-4,5-dihydro-3H-1-thia-3,5,8-triazaacenaphthylene-2-carboxamide], for which the IC50 was over 1 µM.

For `C=CC(=O)N[C@H]1CCC[C@@H](NC(=O)c2sc3nccc4c3c2NC(=O)N4c2ccnc(-c3ccccc3)c2)C1` [Example 283, N-((1R,3S)-3-Acrylamidocyclohexyl)-4-oxo-5-(2-phenylpyridin-4-yl)-4,5-dihydro-3H-1-thia-3,5,8-triazaacenaphthylene-2-carboxamide], the IC50 was over 1 µM.

Consider `N[C@H]1CCC[C@H]1NC(=O)c1sc2nccc3c2c1NC(=O)N3c1cncc(-c2ccccc2)c1` [Example 284, N-((1R,2S)-2-Aminocyclopentyl)-4-oxo-5-(5-phenylpyridin-3-yl)-4,5-dihydro-3H-1-thia-3,5,8-triazaacenaphthylene-2-carboxamide], for which the IC50 was over 1 µM.

Consider `N[C@H]1CCC[C@H]1NC(=O)c1sc2nccc3c2c1NC(=O)N3c1cccc(-c2ccccn2)c1` [Example 285, N-((1R,2S)-2-Aminocyclopentyl)-4-oxo-5-(3-(pyridin-2-yl)phenyl)-4,5-dihydro-3H-1-thia-3,5,8-triazaacenaphthylene-2-carboxamide], for which the IC50 is over 1 µM.

With `CNCC(=O)N[C@@H]1CCC[C@@H]1NC(=O)c1sc2nccc3c2c1NC(=O)N3c1ccnc(-c2ccccc2)c1` [Example 286, N-((1S,2R)-2-(2-(Methylamino)acetamido)cyclopentyl)-4-oxo-5-(2-phenylpyridin-4-yl)-4,5-dihydro-3H-1-thia-3,5,8-triazaacenaphthylene-2-carboxamide], the IC50 is over 1 µM.

As to `Cc1cc(OC2CCOCC2)ccc1N1C(=O)Nc2c(C(=O)N[C@@H]3CCC[C@@H]3N)sc3nccc1c23` [Example 287, N-((1R,2S)-2-Aminocyclopentyl)-5-(2-methyl-4-((tetrahydro-2H-pyran-4-yl)oxy)phenyl)-4-oxo-4,5-dihydro-3H-1-thia-3,5,8-triazaacenaphthylene-2-carboxamide], the IC50 is over 1 µM.

Regarding `N[C@H]1CCC[C@H]1NC(=O)c1sc2nccc3c2c1NC(=O)N3c1ccc(OC2CCOCC2)cc1` [Example 288, N-((1R,2S)-2-Aminocyclopentyl)-4-oxo-5-(4-((tetrahydro-2H-pyran-4-yl)oxy)phenyl)-4,5-dihydro-3H-1-thia-3,5,8-triazaacenaphthylene-2-carboxamide], the IC50 is over 1 µM.
